System: lipid oxidation in Jinhua ham
Assay: Antioxidation and sensory quality of Jinhua ham slices (AV, POV, chromatic aberration)
Conditions: ham slice soaked 2 min in 0.03% solution, stored at 50±1° C. for 11 days, versus control group
Description: AOB was dissolved in water to produce a 0.03% solution, TBHQ (previously dissolved in ethanol) in the same concentration as control. A slice of Jinhua ham with a thickness of 1 cm was soaked for 2 min, and the effects of AOB on antioxidation and sensory quality of the slice of Jinhua ham were compared.

## CC(C)(C)c1cc(O)ccc1O [TBHQ, tert-butyl hydroquinone]
  lipid oxidation (AV and POV): significantly inhibited
